Data from PubChem BioAssay AID1996.
In brackets after ≈: the same amount, converted by molar mass.

Conditions: buffer; pH 7.4; 200.0 µM

solubility kinetic [µg/mL] | SMILES
52 (≈ 143 µM) | N#Cc1c(-c2ccccc2)nc(SCc2ccc([N+](=O)[O-])cc2)[nH]c1=O
34.9 (≈ 132 µM) | Cc1ccc(S(=O)(=O)N2CC3CCCC2C3)cc1 (stereo not given)
19.1 (≈ 59.6 µM) | COc1ccc(/C(N)=N/OC(=O)CC2CCCCC2)cc1OC
2.6 (≈ 8.16 µM) | O=[N+]([O-])c1ccc(N2CCN(c3cccc(Cl)c3)CC2)cn1
> 39 | COn1c(-c2ccc(Cl)cc2)nc2ncccc21
> 50.6 | O=C(O)CC(SCC(=O)NC1CCCc2ccccc21)C(=O)O (stereo not given)
28.6 (≈ 94.9 µM) | Fc1ccc(C2CCCN2Cc2nc(CC3CC3)no2)cc1 (stereo not given)
> 39.2 | Cc1ccccc1NC(=O)CCN1CCN(C)CC1
0.4 (≈ 1.48 µM) | COc1ccccc1NC(=O)NC(=O)c1ccccc1
> 47.3 | CCOc1cc2c(cc1OC)C(NC(=O)c1ccco1)CC2=O (stereo not given)
> 47 | O=c1c(-c2ccccc2)c(O)c2ccccc2n1-c1ccccc1
2.8 (≈ 8.78 µM) | CC(NC(=O)Nc1ccc(Cl)cc1)c1ccc2c(c1)OCO2 (stereo not given)
0.5 (≈ 1.37 µM) | Cc1cc(C(=O)Nc2cccc(NC(=O)c3ccco3)c2)ccc1[N+](=O)[O-]
> 54.4 | CNC(=O)c1cc(S(=O)(=O)Nc2ccc3c(c2)OCCO3)ccc1C
2.4 (≈ 6.64 µM) | CCc1ccc(NC(=S)N(Cc2ccccc2)Cc2ccccn2)cc1
> 51.2 | Cc1ccc(CNC(=O)CNC(=O)c2ccc(C(C)(C)C)cc2)n1C
> 47.4 | COC(=O)c1cccc(NC(=O)CCNC(=O)c2ccco2)c1
7.4 (≈ 21 µM) | CCc1nc(SCC(=O)OC)c2c3c(sc2n1)COC(C)(C)C3
2.9 (≈ 8.94 µM) | CC(C)(C)N(Cc1cc2ccccc2[nH]c1=O)C(=O)c1ccco1
> 46.9 | Cc1nnc2c(N3CCN(CCO)CC3)nc3ccccc3n12
36.9 (≈ 135 µM) | Cc1cccc(C(=O)NCC(c2ccco2)N(C)C)c1 (stereo not given)
> 36.9 | Nc1nccnc1C(=O)OCC(=O)c1ccc[nH]1
39.2 (≈ 138 µM) | Cc1ccc2oc(C(=O)N(C)Cc3ccon3)c(C)c2c1
28.9 (≈ 111 µM) | O=C(Nc1cc(Cl)ccc1Cl)C1CCCO1 (stereo not given)

solubility kinetic [µg/mL] | SMILES
> 39.5 | O=C(COC(=O)c1ccc(O)cc1)NC1CCCC1
> 40 | O=C(NC1=NCCCCC1)c1cccc2ccccc12
37.1 (≈ 146 µM) | O=[N+]([O-])c1cc(CSC2=NCCN2)ccc1O
1.3 (≈ 3.91 µM) | Oc1ccc(C(=S)N2CCN(c3cccc(Cl)c3)CC2)cc1
19.2 (≈ 59.2 µM) | CCOC(=O)c1ccc(NC(=O)N2CCc3ccccc3C2)cc1
5.4 (≈ 19.1 µM) | Cc1ccc2[nH]c(CNC(=O)c3ccccc3F)cc2c1
> 57.8 | C[C@@H](C(=O)Nc1ccccc1N1CCOCC1)N1C(=O)C2CCCCC2C1=O (stereo not given in full)
54.7 (≈ 149 µM) | Cc1ccc(S(=O)(=O)N2CCN(CC(=O)N3CCOCC3)CC2)cc1
0.3 (≈ 1.09 µM) | Cc1ccccc1CNC(=O)Nc1ccc(Cl)cc1
25.6 (≈ 86.4 µM) | COc1ccc(C(=O)Nc2ccccc2N2CCCC2)cc1
> 37.4 | CCC(C)(C)NC(=O)c1ccc2c(c1)OCCO2
> 41.3 | Cc1ccnc(NC(=O)CNC(=O)c2cccs2)c1
3.7 (≈ 12.2 µM) | Cc1cccc(SCC(=O)Nc2ccccc2[N+](=O)[O-])c1
1.1 (≈ 3.22 µM) | CC(C)CN(Cc1cc(=O)oc2cc3c(cc12)CCCC3)CC(C)C
11.6 (≈ 39.3 µM) | O=C(NCCc1ccccc1)c1cnc(Cl)c(Cl)c1
2.5 (≈ 7.71 µM) | CSc1nccc(NC(=O)c2cccc(Br)c2)n1
22.2 (≈ 88 µM) | C/C(=N/O)c1cccc(N2Cc3ccccc3C2)c1
53 | C=Cn1cc[n+](CC(=O)c2ccc(Br)s2)c1.[Br-]
19.2 (≈ 66.8 µM) | Cc1cc(C(=O)Nc2ccccc2N2CCOCC2)no1
> 24.8 | COc1nc(N)nc2nc[nH]c12
> 45.1 | CC(C)NC(=O)CN1CCC(c2nc3ccccc3[nH]2)CC1
20.1 (≈ 84 µM) | COc1nccc(NCc2ccccc2)c1C#N
33.7 (≈ 91.5 µM) | CCN(C(=O)COC(=O)c1ccc([N+](=O)[O-])o1)c1cccc2ccccc12
2.3 (≈ 5.31 µM) | O=S(=O)(Nc1ccccc1N1CCOCC1)c1c(F)cc(F)cc1Br

solubility kinetic [µg/mL] | SMILES
6 (≈ 18.9 µM) | Cc1ccc(CNCC(O)(c2ccccc2)c2ccccc2)cc1
> 42.2 | C=CCNC(=O)COC(=O)CCC(=O)c1cccs1
10.2 (≈ 43 µM) | Cc1ccc(C(=O)NC2CCC(C)CC2)s1 (stereo not given)
> 43.9 | CC(NC(=O)CCc1c[nH]c2ccccc12)c1ccccc1 (stereo not given)
1.4 (≈ 3.21 µM) | COc1ccccc1OCC(=O)Nc1ccc(NC(=O)COc2ccccc2OC)cc1
49.8 (≈ 147 µM) | O=C(CN1C(=O)NC2(CCCC2)C1=O)Nc1ccc(Cl)cc1F
3 (≈ 7.72 µM) | O=C(COc1ccccc1/C=C1\SC(=S)NC1=O)Nc1ccc(F)cc1
> 48 | CC(CN1CCOCC1)OC(=O)c1ccccc1Cl.Cl (stereo not given)
13 (≈ 61.5 µM) | Oc1cccc(N2Cc3ccccc3C2)c1
1.1 (≈ 5.26 µM) | Cc1ccc(C)c2c1c1ccccc1n2C
> 48.1 | Cc1ccccc1NC(=O)c1cccc(NC(=O)c2ccco2)c1
< 0.7 | COc1ccc(NC(=O)c2cc(F)c(F)cc2Cl)cc1Cl
> 49.8 | Cc1cc(OC(=O)c2ccc(OC(C)C)cc2)c([N+](=O)[O-])c(=O)[nH]1
> 52.4 | CC(=O)Nc1ccc(NS(=O)(=O)c2ccc(C)cc2)cc1[N+](=O)[O-]
> 31.9 | NC(=O)CNC(=O)c1ccc(Cl)cc1
34.3 (≈ 144 µM) | Nc1nc(CCOc2ccc(F)cc2)cs1
6 (≈ 24.9 µM) | Fc1ccccc1-c1nc(-c2ccncc2)no1
> 33.8 | Nc1ccc(C(=O)C(=O)c2ccccc2)cc1
< 0.3 | CCn1c(O)c(C=NCc2ccccc2)sc1=S
< 0.2 | O=[N+]([O-])c1ccc(Sc2cccc3cccnc23)c2cccnc12
< 0.2 | COc1ccc(Nc2nc(C)cc(C)c2C#N)c(OC)c1
> 53.3 | COc1ccc2[nH]c(C(=O)O)c(NC(=O)c3ccccc3[N+](=O)[O-])c2c1
24.8 (≈ 81.9 µM) | CC(C)C(CCNCc1ccccn1)c1ccc(Cl)cc1 (stereo not given)
41.3 (≈ 149 µM) | COc1nc(C)cc(C)c1S(=O)(=O)c1ccccc1

solubility kinetic [µg/mL] | SMILES
> 41.2 | Cc1ccccc1C(=O)O/N=C(\N)Cc1cccs1
< 0.1 | CC(C)Nc1nc(-c2ccncc2)nc(-c2ccccc2)c1C#N
6.3 (≈ 23.5 µM) | Cc1ccc(NC(=O)Nc2ncnc3nc[nH]c23)cc1
3.9 (≈ 11.4 µM) | O=C(CC1SC(=Nc2ccc(O)cc2)NC1=O)Nc1ccccc1 (stereo not given)
48.8 (≈ 149 µM) | Cc1cc(C)c(C)c(S(=O)(=O)NCCN2CCOCC2)c1C
< 0.3 | O=c1[nH]c2ccccc2nc1-c1ccc(Cl)cc1
> 73.4 | CC(C(=O)Nc1ccc(C#N)cc1)N(C)CC(=O)N(C)c1c(N)n(Cc2ccccc2)c(=O)[nH]c1=O (stereo not given)
< 0.3 | N#Cc1sc(C(N)=O)c(-c2ccccc2)c1-c1ccccc1
> 37.2 | Nc1cccc(S(=O)(=O)Nc2ccccc2)c1
0.6 (≈ 2.46 µM) | c1ccc(NC2=Nc3cccc4cccc2c34)cc1
> 46 | CCC(C)NC(=O)CN1C(=O)C(CC)Sc2ccccc21 (stereo not given)
14.9 (≈ 48.3 µM) | Cc1cc(C(=O)NCCc2ccccc2)c2cc(F)ccc2n1
> 41.6 | Cc1ccc(OCC(=O)OCC(=O)NC2CC2)cc1C
> 46.4 | Cc1ccc(C(=O)Nc2ccc(N3CCN(C)CC3)cc2)cc1
42.9 (≈ 131 µM) | COC(=O)COc1ccc(S(=O)(=O)N2CCCCCC2)cc1
> 47.5 | Cc1nnc(NC(=O)C2CC(=O)N(Cc3ccccc3)C2)s1 (stereo not given)
> 49.6 | COc1ccc(NC(=S)Nc2cccc(C(C)=O)c2)cc1OC
> 29.4 | Nc1ccc(S(=O)(=O)[O-])cn1.[Na+]
37.2 (≈ 133 µM) | COc1cc([N+](=O)[O-])ccc1NC(=O)CN1CCCC1
< 0.2 | Cc1ccc(-c2csc(NC(=O)c3cnccn3)n2)cc1C
36.7 (≈ 116 µM) | Cc1cccc(Cn2c(-c3ccc[nH]c3=O)nc3ccccc32)c1
29.5 (≈ 75.4 µM) | COc1ccccc1NC(=O)c1cc(N)cc(C(=O)Nc2ccccc2OC)c1
> 47.6 | CCC(OC(=O)c1ccco1)C(=O)NCc1ccc(OC)cc1 (stereo not given)
24 (≈ 69.9 µM) | O=C1COc2ccc(C(=O)COC(=O)Cc3ccccc3F)cc2N1

solubility kinetic [µg/mL] | SMILES
49.2 (≈ 138 µM) | Cc1ccc(N(CC(=O)NC2CCCC2)C(=O)c2ccc(C)s2)cc1
55.1 (≈ 147 µM) | CCCCN1C(=O)C(=O)N(CC(=O)Nc2ccccc2C(=O)OCC)C1=O
20.7 (≈ 52.3 µM) | O=C(Cc1ccc(S(=O)(=O)N2CCCC2)s1)Nc1cccc([N+](=O)[O-])c1
0.7 (≈ 2.02 µM) | O=C(Nc1ccccc1N1CCCCC1)c1ccc(OC(F)F)cc1
> 50.7 | O=C(COc1ccc(Cl)cc1)Nc1nnc(C2=COCCO2)o1
> 45.2 | Cc1cccn2c(=O)c(C=O)c(N3CC(C)OC(C)C3)nc12 (stereo not given)
58.1 (≈ 134 µM) | Cc1ccc(NC(=O)COC(=O)Cc2ccccc2)cc1S(=O)(=O)N1CCOCC1
> 39.3 | O=CN1CCN(C(=O)c2ccc3c(c2)OCO3)CC1
> 39.6 | Cc1cccc(NC(=O)CN2C(=O)CSC2=O)c1
13.1 (≈ 62.6 µM) | O=c1cc(NC2CCCCC2)[nH]c(=O)[nH]1
> 54.1 | Cc1ccc(S(=O)(=O)Nc2ccccc2C(=O)N2CCOCC2)cc1
> 47.4 | O=C(NCc1cccnc1)C1CC(c2ccccc2Cl)=NO1 (stereo not given)
6.7 (≈ 17.3 µM) | O=C(/C=C/Nc1ccc(S(=O)(=O)Nc2ncccn2)cc1)c1cccs1
2.8 (≈ 9.58 µM) | CCn1c(/C=C/c2ccc(O)cc2)nc2ccccc2c1=O
> 32.3 | O=c1[nH]c2ccccc2n1C1=CCNCC1
49.3 (≈ 148 µM) | Cc1cc(C)cc(C(=O)NCC(=O)OCC(=O)N2CCCCC2)c1
27.8 | CC#CC[N+](C)(C)CCCCCC.[Cl-]
15.6 (≈ 49.5 µM) | O=C(COC(=O)c1ccc(O)cc1)Nc1ccc2c(c1)OCO2
0.9 (≈ 2.65 µM) | O=C1/C(=C/c2ccccc2)SC(=S)N1C1CCS(=O)(=O)C1 (stereo not given)
3.1 (≈ 9.89 µM) | Cc1ccc2c(COC(=O)c3c(C)noc3C)cc(=O)oc2c1
3.4 (≈ 9.93 µM) | O=C(CSc1ccc(Br)cc1)NC1CCCCCC1
13 (≈ 33.6 µM) | CCOC(=O)c1sc(NC(=O)C2CC(=O)N(c3ccc(C)cc3)C2)nc1C (stereo not given)

SMILES | solubility kinetic [µg/mL]
CCN1CCN(CC(=O)Nc2cc(S(=O)(=O)N3CCCCC3)ccc2Cl)CC1.O=C(O)C(=O)O | > 77.9
N#CC(C#N)=Cc1cccnc1 | 19.5 (≈ 126 µM)
